# Patent US20060127310A1, “Amplification of biotin-mediated targeting” (priority 2002, published 2006)
# Columns and labels:
# O157 = assay: Uptake of Rhodamine-HPMA polymers into tumour cell lines; format: cell-based; design: key: −: Uptake was determined on a relative scale; +/−: Uptake was determined on a relative scale; +: Uptake was determined on a relative scale; ++: Uptake was determined on a relative scale; +++: Uptake was determined on a relative scale; conditions: O157, Balb/C, Bcell Lymph; 5 hours at 37° C.
# Experimental: (§1) Cells from various tumour cell lines were allowed to grow for 2 days on glass slides incubated in appropriate media at 37° C. in 5% CO2. […] Cells were incubated for a further 5 hours at 37° C. in 5% CO2. At this time the media was removed and uptake into the cells was assessed by fluorescent microscopy of internalization of the rhodamine fluorophore. Uptake was determined on a relative scale.
# P815 tumour cells = conditions: mice bearing P815 tumour; 5 mg/kg Rhodamine conjugated to HPMA intraperitoneally; six hours after injection; FIG. 1
# Experimental: For tumour accumulation studies, various strains of mice bearing a variety of tumours were injected intraperitoneally with 5 mg/kg Rhodamine conjugated to the HPMA polymers. Six hours after injection, the mice were sacrificed, their tumours removed and cryo-embedded before cryostatic sectioning. The level of accumulation of the Rhodamine-HPMA was determined by fluorescent microscopy using a Zeiss microscope equiped with Axioplan software. […] Blue staining is BisBenzamide staining of cell nuclei.
# BW5147 = assay: Uptake of Rhodamine-HPMA polymers into tumour cell lines; format: cell-based; conditions: BW5147, AKR/J, Lymphoma; 5 hours at 37° C.
# Experimental: as §1
# Ov 2008 = assay: as above; format: cell-based; conditions: Ov 2008, Balb/C-Nu, Ovarian; 5 hours at 37° C.
# Experimental: as §1
# JC = assay: as above; format: cell-based; conditions: Balb/C, Breast, 5 hours at 37° C.
# Experimental: as §1
# L1210 = assay: as above; format: cell-based; conditions: L1210, DBA/2, Leukemia; 5 hours at 37° C.
# Experimental: as §1
# Colo-26 = assay: as above; format: cell-based; conditions: Colo-26, Balb/C, Colon Carcin; 5 hours at 37° C.
# Experimental: as §1
# P815 = assay: as above; format: cell-based; conditions: P815, DBA/2, Mastocytoma; 5 hours at 37° C.
# Experimental: as §1
# L1210FR = assay: as above; format: cell-based; conditions: DBA/2, Leukemia, 5 hours at 37° C.
# Experimental: as §1
# RENCA = assay: as above; format: cell-based; conditions: Balb/C, Renal cell, 5 hours at 37° C.
# Experimental: as §1
# LL-2 = assay: as above; format: cell-based; conditions: LL-2, C57/BI, Lung; 5 hours at 37° C.
# Experimental: as §1
# HCT-116 = assay: as above; format: cell-based; conditions: HCT-116, Balb/C-Nu, Colon Carcin; 5 hours at 37° C.
# Experimental: as §1
# B16 = assay: as above; format: cell-based; conditions: B16, C57/BI, Melanoma; 5 hours at 37° C.
# Experimental: as §1
# ID8 = assay: as above; format: cell-based; conditions: ID8, C57/BI, Ovarian; 5 hours at 37° C.
# Experimental: as §1
# 4T1 = assay: as above; format: cell-based; conditions: 4T1, Balb/C, Breast; 5 hours at 37° C.
# Experimental: as §1
# MMT060562 = assay: as above; format: cell-based; conditions: MMT060562, Balb/C, Breast; 5 hours at 37° C.
# Experimental: as §1
# Ovcar = assay: as above; format: cell-based; conditions: Ovarian, 5 hours at 37° C.
# Experimental: as §1
# M109 = assay: as above; format: cell-based; conditions: M109, Balb/C, Lung; 5 hours at 37° C.
# Experimental: as §1
substance,measurement,setting,value
Rhodamine-HPMA polymer,"Uptake into the cells (internalization of the rhodamine fluorophore, fluorescent microscopy), relative scale",O157,+/−
same,Level of accumulation / polymer uptake by P815 tumour cells (fluorescent microscopy of cryostat sections),P815 tumour cells,accumulation
same,"Uptake into the cells (internalization of the rhodamine fluorophore, fluorescent microscopy), relative scale",BW5147,+/−
same,"Uptake into the cells (internalization of the rhodamine fluorophore, fluorescent microscopy), relative scale",Ov 2008,−
same,"Uptake into the cells (internalization of the rhodamine fluorophore, fluorescent microscopy), relative scale",JC,−
same,"Uptake into the cells (internalization of the rhodamine fluorophore, fluorescent microscopy), relative scale",L1210,−
same,"Uptake into the cells (internalization of the rhodamine fluorophore, fluorescent microscopy), relative scale",Colo-26,−
same,"Uptake into the cells (internalization of the rhodamine fluorophore, fluorescent microscopy), relative scale",P815,−
same,"Uptake into the cells (internalization of the rhodamine fluorophore, fluorescent microscopy), relative scale",L1210FR,−
same,"Uptake into the cells (internalization of the rhodamine fluorophore, fluorescent microscopy), relative scale",RENCA,−
same,"Uptake into the cells (internalization of the rhodamine fluorophore, fluorescent microscopy), relative scale",LL-2,−
same,"Uptake into the cells (internalization of the rhodamine fluorophore, fluorescent microscopy), relative scale",HCT-116,+
same,"Uptake into the cells (internalization of the rhodamine fluorophore, fluorescent microscopy), relative scale",B16,−
same,"Uptake into the cells (internalization of the rhodamine fluorophore, fluorescent microscopy), relative scale",ID8,−
same,"Uptake into the cells (internalization of the rhodamine fluorophore, fluorescent microscopy), relative scale",4T1,−
same,"Uptake into the cells (internalization of the rhodamine fluorophore, fluorescent microscopy), relative scale",MMT060562,−
same,"Uptake into the cells (internalization of the rhodamine fluorophore, fluorescent microscopy), relative scale",Ovcar,−
same,"Uptake into the cells (internalization of the rhodamine fluorophore, fluorescent microscopy), relative scale",M109,−
